Drawing on patent US9957267B2, “Somatostatin modulators and uses thereof” (Crinetics Pharmaceuticals, Inc., priority 2015, dated 2018), this text covers EC50 for 17 molecules.

SMILES strings stand for the structures. pEC50: −log10 of the molar value. Read-outs that look alike come from different tables or passages of the source.

Format in all cases: cell-based
For one assay, the target named is T1, SSTR1 (Homo sapiens, UniProt P30872).
T1 construct: expressed in transfected cells
The experiment in a line: cAMP functional agonist assay, CHO cells expressing SSTR1. On the procedure: (§1) Chinese hamster ovary (CHO) cells stably expressing one of the six human or rodent somatostatin receptor subtypes are grown to 85-100% confluence on standard tissue culture dishes in F12-Ham's growth media (Hyclone) with following additives: 10% donor calf serum (Hyclone), 200 U/mL penicillin (Hyclone), 200 μg/mL streptomycin (Hyclone), 20 mM HEPES (Hyclone), 200 μg/mL hygromycin Hyclone.
(§2) General overview: All SSTR subtypes are Gi coupled G-protein coupled receptors (GPCRs) that lead to decreases in intracellular cyclic AMP (cAMP) when activated by an agonist. […] One example of an intracellular cAMP assay is described below.

For another assay, the target named is SSTR3 (UniProt P32745). The experiment in a line: cAMP functional agonist assay, CHO cells expressing SSTR3. As to conditions: CHO cells stably expressing SSTR3, cAMP. Here is the method: as §1
SSTR3, sequence (P32745 whole entry): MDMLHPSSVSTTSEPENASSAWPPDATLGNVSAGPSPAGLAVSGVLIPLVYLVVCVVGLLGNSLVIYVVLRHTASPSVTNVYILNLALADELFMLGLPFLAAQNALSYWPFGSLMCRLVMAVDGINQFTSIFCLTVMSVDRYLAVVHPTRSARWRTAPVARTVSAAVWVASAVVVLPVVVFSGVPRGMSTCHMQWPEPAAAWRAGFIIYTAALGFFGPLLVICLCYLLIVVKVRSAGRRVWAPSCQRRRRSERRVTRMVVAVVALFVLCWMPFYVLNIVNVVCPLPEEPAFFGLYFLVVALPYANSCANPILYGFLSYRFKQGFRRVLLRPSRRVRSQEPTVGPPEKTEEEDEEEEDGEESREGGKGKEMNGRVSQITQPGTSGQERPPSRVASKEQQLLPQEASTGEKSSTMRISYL
(§3) General overview: All SSTR subtypes are Gi coupled G-protein coupled receptors (GPCRs) that lead to decreases in intracellular cyclic AMP (cAMP) when activated by an agonist. Therefore, measurement of intracellular cAMP levels can be used to assess whether compounds of the invention are agonists of SSTR subtypes (John Kelly, Troy Stevens, W. Joseph Thompson, and Roland Seifert, Current Protocols in Pharmacology, 2005, 2.2.1-2.2). One example of an intracellular cAMP assay is described below.

For a further assay, the target named is T2, SSTR4 (Homo sapiens, UniProt P31391).
T2 construct: expressed in transfected cells
T2 sequence (P31391 whole entry): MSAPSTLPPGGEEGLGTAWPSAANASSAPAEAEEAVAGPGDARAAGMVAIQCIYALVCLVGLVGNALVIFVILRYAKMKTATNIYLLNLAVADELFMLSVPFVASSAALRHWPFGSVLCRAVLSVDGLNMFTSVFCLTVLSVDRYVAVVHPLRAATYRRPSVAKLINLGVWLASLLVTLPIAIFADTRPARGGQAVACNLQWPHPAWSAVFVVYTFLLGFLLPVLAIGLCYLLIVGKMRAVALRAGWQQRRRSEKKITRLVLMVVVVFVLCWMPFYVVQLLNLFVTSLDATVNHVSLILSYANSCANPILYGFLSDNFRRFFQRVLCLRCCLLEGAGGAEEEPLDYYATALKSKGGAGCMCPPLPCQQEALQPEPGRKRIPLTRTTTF
The experiment in a line: cAMP functional agonist assay, CHO cells expressing SSTR4. On the procedure: as §1, §2

The target in the next assay is T3, SSTR5 (Homo sapiens, UniProt P35346).
T3 construct: expressed in transfected cells
T3 sequence (P35346 whole entry): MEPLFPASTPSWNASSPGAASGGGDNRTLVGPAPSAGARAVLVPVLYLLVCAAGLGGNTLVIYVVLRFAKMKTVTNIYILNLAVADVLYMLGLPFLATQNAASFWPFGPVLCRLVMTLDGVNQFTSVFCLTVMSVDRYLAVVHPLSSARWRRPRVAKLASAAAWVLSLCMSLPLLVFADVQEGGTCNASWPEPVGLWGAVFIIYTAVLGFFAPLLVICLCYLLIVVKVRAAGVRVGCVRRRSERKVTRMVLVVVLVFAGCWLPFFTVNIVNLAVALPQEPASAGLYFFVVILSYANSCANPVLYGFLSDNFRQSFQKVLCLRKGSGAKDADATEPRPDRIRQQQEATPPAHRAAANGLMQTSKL
The experiment in a line: cAMP functional agonist assay, CHO cells expressing SSTR5. The following applies: CHO cells stably expressing SSTR5, cAMP. Here is the method: as §1, §3

[1] abbreviates: CHO cells stably expressing SSTR1, cAMP, read-out: SSTR1 EC50.

T1 sequence (P30872 whole entry): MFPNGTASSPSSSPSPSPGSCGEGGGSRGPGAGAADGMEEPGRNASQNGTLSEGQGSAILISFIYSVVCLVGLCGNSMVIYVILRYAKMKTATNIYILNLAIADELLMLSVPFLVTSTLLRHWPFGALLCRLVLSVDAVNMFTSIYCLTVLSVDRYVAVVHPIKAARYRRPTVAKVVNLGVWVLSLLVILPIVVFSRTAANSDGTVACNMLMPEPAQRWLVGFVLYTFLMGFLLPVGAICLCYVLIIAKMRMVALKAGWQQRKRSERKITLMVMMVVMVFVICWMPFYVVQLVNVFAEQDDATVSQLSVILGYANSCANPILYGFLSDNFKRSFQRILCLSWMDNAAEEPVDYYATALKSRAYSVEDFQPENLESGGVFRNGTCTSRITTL

For the molecule `Cc1cc(C)cc(-c2cnc3ncn(-c4cccc(O)c4)c(=O)c3c2CN(C)CCN)c1` [Compound A-1, 5-{[(2-aminoethyl)(methyl)amino]methyl}-6-(3,5-dimethylphenyl)-3-(3-hydroxyphenyl)-3H,4H-pyrido[2,3-d]pyrimidin-4-one], the pEC50 – broadly, the EC50 on a negative log10 scale, so that one unit is a factor of ten – on SSTR1 was under 5.00; at SSTR3, 5.00 to 7.00; on SSTR4 (CHO cells stably expressing SSTR4, cAMP, read-out: SSTR4 EC50), over 7.00; on SSTR5 it was under 5.00.
For `CCN(CCN)Cc1c(-c2cc(C)cc(C)c2)cnc2ncn(-c3cccc(O)c3)c(=O)c12` [Compound A-2, 5-{[(2-aminoethyl)(ethyl)amino]methyl}-6-(3,5-dimethylphenyl)-3-(3-hydroxyphenyl)-3H,4H-pyrido[2,3-d]pyrimidin-4-one], the negative-log EC50 (pEC50) was under 5.00 at SSTR1, 5.00 to 7.00 at SSTR3, over 7.00 at SSTR4 and 5.00 to 7.00 on SSTR5.
Regarding `Cc1cc(C)cc(-c2cnc3ncn(-c4cccc(O)c4)c(=O)c3c2CN(C)C(C)CN)c1` (centres unmarked) [Compound A-7, 5-{[(1-aminopropan-2-yl)(methyl)amino]methyl}-6-(3,5-dimethylphenyl)-3-(3-hydroxyphenyl)-3H,4H-pyrido[2,3-d]pyrimidin-4-one], the negative-log EC50 (pEC50) is 5.00 to 7.00 on SSTR3 and over 7.00 on SSTR4.
`Cc1cc(C)cc(-c2cnc3ncn(-c4cccc(O)c4)c(=O)c3c2CN(C)C[C@H](C)N)c1` [Compound A-8, 5-({[(2S)-2-aminopropyl](methyl)amino}methyl)-6-(3,5-dimethylphenyl)-3-(3-hydroxyphenyl)-3H,4H-pyrido[2,3-d]pyrimidin-4-one]: the pEC50 is 5.00 to 7.00 on SSTR3, over 7.00 on SSTR4 and under 5.00 at SSTR5.
As to `Cc1cc(C)cc(-c2cnc3ncn(-c4cccc(O)c4)c(=O)c3c2CN2CCC(N)C2)c1` (centres unmarked) [Compound A-10, 5-[(3-aminopyrrolidin-1-yl)methyl]-6-(3,5-dimethylphenyl)-3-(3-hydroxyphenyl)-3H,4H-pyrido[2,3-d]pyrimidin-4-one], the negative-log EC50 (pEC50) is under 5.00 on SSTR3 and 5.00 to 7.00 at SSTR4.
With `Cc1cc(C)cc(-c2cnc3ncn(-c4cccc(O)c4)c(=O)c3c2CN2CCCC2CN)c1` (centres unmarked) [Compound A-11, 5-{[2-(aminomethyl)pyrrolidin-1-yl]methyl}-6-(3,5-dimethylphenyl)-3-(3-hydroxyphenyl)-3H,4H-pyrido[2,3-d]pyrimidin-4-one], the pEC50 at SSTR1 was 5.00 to 7.00; on SSTR4 it was over 7.00.
Consider `Cc1cc(C)cc(-c2cnc3ncn(-c4cccc(O)c4)c(=O)c3c2CN(C)CC2(N)CCCC2)c1` [Compound A-12, 5-({[(1-aminocyclopentyl)methyl](methyl)amino}methyl)-6-(3,5-dimethylphenyl)-3-(3-hydroxyphenyl)-3H,4H-pyrido[2,3-d]pyrimidin-4-one], for which the negative-log EC50 (pEC50) was 5.00 to 7.00 at SSTR3, over 7.00 at SSTR4 and 5.00 to 7.00 on SSTR5.
`Cc1cc(C)cc(-c2cnc3ncn(-c4cccc(O)c4)c(=O)c3c2CN(C)CC2CCCCN2)c1` (centres unmarked) [Compound A-13, 6-(3,5-dimethylphenyl)-3-(3-hydroxyphenyl)-5-{[methyl(piperidin-2-ylmethyl)amino]methyl}-3H,4H-pyrido[2,3-d]pyrimidin-4-one]: the pEC50 is 5.00 to 7.00 at SSTR1, over 7.00 on SSTR3, over 7.00 at SSTR4 and under 5.00 on SSTR5.
For `Cc1cc(C)cc(-c2cnc3ncn(-c4cccc(O)c4)c(=O)c3c2CN(C)C[C@@H]2CCCN2)c1` [Compound A-17, 6-(3,5-dimethylphenyl)-3-(3-hydroxyphenyl)-5-({methyl[(2S)-pyrrolidin-2-ylmethyl]amino}methyl)-3H,4H-pyrido[2,3-d]pyrimidin-4-one], the pEC50 at SSTR1 is 5.00 to 7.00; at SSTR3 it was over 7.00; on SSTR4, over 7.00.
In the case of `Cc1cc(C)cc(-c2cnc3ncn(-c4cccc(O)c4)c(=O)c3c2CN(C)C[C@@H]2CCN2)c1` [Compound A-18, 5-({[(2S)-azetidin-2-ylmethyl](methyl)amino}methyl)-6-(3,5-dimethylphenyl)-3-(3-hydroxyphenyl)-3H,4H-pyrido[2,3-d]pyrimidin-4-one], the values for the pEC50 on SSTR1, at SSTR3 and on SSTR4 were 5.00 to 7.00, 5.00 to 7.00 and over 7.00, respectively.
Take `Cc1cc(C)cc(-c2cnc3ncn(-c4cccc(O)c4)c(=O)c3c2CN(C)CC2COCCN2)c1` (centres unmarked) [Compound A-19, 6-(3,5-dimethylphenyl)-3-(3-hydroxyphenyl)-5-{[methyl(morpholin-3-ylmethyl)amino]methyl}-3H,4H-pyrido[2,3-d]pyrimidin-4-one]: the negative logarithm of the EC50 (pEC50) was over 7.00 at SSTR3, over 7.00 at SSTR4 and under 5.00 at SSTR5.
Regarding `COc1cccc(-n2cnc3ncc(-c4cc(C)cc(C)c4)c(CN(C)C[C@@H]4CCCN4)c3c2=O)c1` [Compound A-33, 6-(3,5-dimethylphenyl)-3-(3-methoxyphenyl)-5-({methyl[(2S)-pyrrolidin-2-ylmethyl]amino}methyl)-3H,4H-pyrido[2,3-d]pyrimidin-4-one], the pEC50 at SSTR3 is 5.00 to 7.00; at SSTR4, over 7.00.
As for `Cc1cc(C)cc(-c2cnc3ncn(-c4cccc(CO)c4)c(=O)c3c2CN(C)C[C@@H]2CCCN2)c1` [Compound A-40, 6-(3,5-dimethylphenyl)-3-[3-(hydroxymethyl)phenyl]-5-({methyl[(2S)-pyrrolidin-2-ylmethyl]amino}methyl)-3H,4H-pyrido[2,3-d]pyrimidin-4-one], the pEC50 at SSTR3 is 5.00 to 7.00; on SSTR4, over 7.00.
`Cc1cc(C)cc(-c2cnc3ncn(-c4ccc(O)cc4)c(=O)c3c2CN(C)C[C@@H]2CCCN2)c1` [Compound A-41, 6-(3,5-dimethylphenyl)-3-(4-hydroxyphenyl)-5-({methyl[(2S)-pyrrolidin-2-ylmethyl]amino}methyl)-3H,4H-pyrido[2,3-d]pyrimidin-4-one]: the figures for the negative-log EC50 (pEC50) at SSTR3 and on SSTR4 were 5.00 to 7.00 and over 7.00, respectively.
For `CNC(=O)c1cccc(-n2cnc3ncc(-c4cc(C)cc(C)c4)c(CN(C)C[C@@H]4CCCN4)c3c2=O)c1` [Compound A-43, 3-[6-(3,5-dimethylphenyl)-5-({methyl[(2S)-pyrrolidin-2-ylmethyl]amino}methyl)-4-oxo-3H,4H-pyrido[2,3-d]pyrimidin-3-yl]-N-methylbenzamide], in that order: 5.00 to 7.00 and over 7.00.
On to `Cc1cc(Cl)cc(-c2cnc3ncn(-c4cc(O)cc(F)c4)c(=O)c3c2CN(C)C[C@@H]2CCCN2)c1` [Compound A-47, 6-(3-chloro-5-methylphenyl)-3-(3-fluoro-5-hydroxyphenyl)-5-({methyl[(2S)-pyrrolidin-2-ylmethyl]amino}methyl)-3H,4H-pyrido[2,3-d]pyrimidin-4-one], for which the pEC50 was 5.00 to 7.00 at SSTR1 (setting [1]), over 7.00 at SSTR3 and 5.00 to 7.00 at SSTR5.
As to `Cc1cc(Cl)cc(-c2cnc3ncn(-c4cc(O)cc(F)c4)c(=O)c3c2CN(C)C[C@H]2CCCN2)c1` [Compound A-53, 6-(3-chloro-5-methylphenyl)-3-(3-fluoro-5-hydroxyphenyl)-5-({methyl[(2R)-pyrrolidin-2-ylmethyl]amino}methyl)-3H,4H-pyrido[2,3-d]pyrimidin-4-one], the pEC50 on SSTR1 (setting [1]) is 5.00 to 7.00; at SSTR3 it was over 7.00; at SSTR5 it was under 5.00.
